# Measurements published in patent US8309718B2, “4-pyrazolyl-N-arylpyrimidin-2-amines and 4-pyrazolyl-N-heteroarylpyrimidin-2-amines as janus kinase inhibitors” (Incyte Corporation, priority 2007, dated 2012).
# pIC50: −log10 of the molar value.
# Target: T1, human JAK2 (Homo sapiens, UniProt O60674)
# T1 construct: JAK2 (a.a. 828-1132); His tag (N); made in house; host or cells: insect cells (baculovirus)
# Test: In vitro JAK kinase assay (HTRF, phosphorylation of biotinylated peptide)
# Format: biochemical
# Settings: catalytic domain a.a. 828-1132, 30 μM ATP, 500 nM peptide, room temperature 1 hr; read-out: JAK-2 IC50
# How it was run: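 IC50 from HTRF detection (Eu-Py20 antibody, SA-APC) of biotinylated-peptide phosphorylation (500 nM), run 1 h at RT. Enzyme: N-His human JAK2 kinase domain a.a. 828-1132 from insect cells; ATP 30 μM; buffer 50 mM Tris pH 7.8 with NaCl, DTT, BSA.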
# T1 sequence (O60674 828-1132): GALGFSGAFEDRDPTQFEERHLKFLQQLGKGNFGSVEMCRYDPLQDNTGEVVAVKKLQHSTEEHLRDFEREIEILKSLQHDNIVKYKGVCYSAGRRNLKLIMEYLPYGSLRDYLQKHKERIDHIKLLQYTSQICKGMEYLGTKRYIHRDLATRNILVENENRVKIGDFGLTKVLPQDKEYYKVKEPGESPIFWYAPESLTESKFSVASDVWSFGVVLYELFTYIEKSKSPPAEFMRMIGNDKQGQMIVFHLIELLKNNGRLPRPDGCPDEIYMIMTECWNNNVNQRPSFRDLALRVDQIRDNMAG
row,SMILES,pIC50
1,"CNC(=O)c1ccc(Nc2ncc(C)c(-c3cnn(C(CC#N)C4CCCC4)c3)n2)cc1 (racemic) [Example 86, 4-(4-(1-(2-cyano-1-cyclopentylethyl)-1H-pyrazol-4-yl)-5-methylpyrimidin-2-ylamino)-N-methylbenzamide]",> 7.00
2,"CC(=O)N1CCN(C(=O)c2cccc(Nc3nccc(-c4cnn(C(CC#N)C5CCCC5)c4)n3)c2)CC1 (racemic) [Example 143, 3-(4-(2-(3-(4-acetylpiperazine-1-carbonyl)phenylamino)pyrimidin-4-yl)-1H-pyrazol-1-yl)-3-cyclopentylpropanenitrile]",> 7.00
3,"Cc1noc(C)c1C(=O)Nc1ccc(Nc2nccc(-c3cnn(C(CC#N)C4CCCC4)c3)n2)cc1 (racemic) [Example 189, N-(4-(4-(1-(2-cyano-1-cyclopentylethyl)-1H-pyrazol-4-yl)pyrimidin-2-ylamino)phenyl)-3,5-dimethylisoxazole-4-carboxamide]",> 7.00
4,"N#CCC(C1CCN(S(=O)(=O)c2ccccc2)CC1)n1cc(-c2ccnc(Nc3ccc(N4CCOCC4)cc3)n2)cn1 (racemic) [Example 25, 3-(4-(2-(4-morpholinophenylamino)pyrimidin-4-yl)-1H-pyrazol-1-yl)-3-(1-(phenylsulfonyl)piperidin-4-yl)propanenitrile]",> 7.00
5,"N#CCC(CC1CCN(C(=O)c2ccc(F)cc2F)CC1)n1cc(-c2ccnc(Nc3ccc(N4CCNCC4)cc3)n2)cn1 (racemic) [Example 2, 4-(1-(2,4-difluorobenzoyl)piperidin-4-yl)-3-(4-(2-(4-(piperazin-1-yl)phenylamino)pyrimidin-4-yl)-1H-pyrazol-1-yl)butanenitrile]",> 7.00
6,"Cc1cnc(Nc2ccccc2)nc1-c1cnn(C(CC#N)CC2CCN(S(=O)(=O)c3ccn(C)n3)CC2)c1 (racemic) [Example 65, 4-(1-(1-methyl-1H-pyrazol-3-ylsulfonyl)piperidin-4-yl)-3-(4-(5-methyl-2-(phenylamino)pyrimidin-4-yl)-1H-pyrazol-1-yl)butanenitrile]",> 7.00
7,"Cn1ccc(S(=O)(=O)N2CCC(CC(CC#N)n3cc(-c4ccnc(Nc5ccccc5)n4)cn3)CC2)n1 (racemic) [Example 57, 4-(1-(1-methyl-1H-pyrazol-3-ylsulfonyl)piperidin-4-yl)-3-(4-(2-(phenylamino)pyrimidin-4-yl)-1H-pyrazol-1-yl)butanenitrile]",> 7.00
8,"CN(C(=O)c1ccc(Nc2nccc(-c3cnn(C(CC#N)C4CCCC4)c3)n2)cc1)[C@H]1CC[C@@H](O)CC1 (mixture of isomers) [Example 217, 4-(4-(1-(2-cyano-1-cyclopentylethyl)-1H-pyrazol-4-yl)pyrimidin-2-ylamino)-N-(cis-4-hydroxycyclohexyl)-N-methylbenzamide]",> 7.00

# Second part, the compound after the results:
row,pIC50,SMILES
1,> 7.00,"COc1cnc(Nc2ccc(N3CCOCC3)cc2)nc1-c1cnn(C(CC#N)C2CCCC2)c1 (racemic) [Example 101, 3-cyclopentyl-3-(4-(5-methoxy-2-(4-morpholinophenylamino)pyrimidin-4-yl)-1H-pyrazol-1-yl)propanenitrile]"
2,> 7.00,"CCS(=O)(=O)N1CCC(CC(CC#N)n2cc(-c3ccnc(Nc4ccc(N5CCOCC5=O)cc4)n3)cn2)CC1 (racemic) [Example 96, 4-(1-(ethylsulfonyl)piperidin-4-yl)-3-(4-(2-(4-(3-oxomorpholino)phenylamino)pyrimidin-4-yl)-1H-pyrazol-1-yl)butanenitrile]"
3,> 7.00,"N#CCC(C1CC1)n1cc(-c2ccnc(Nc3ccc(C(=O)N4CCC(O)CC4)cc3)n2)cn1 (racemic) [Example 251, 3-cyclopropyl-3-(4-(2-(4-(4-hydroxypiperidine-1-carbonyl)phenylamino)pyrimidin-4-yl)-1H-pyrazol-1-yl)propanenitrile]"
4,> 7.00,"COc1ccccc1CNC(=O)c1cccc(Nc2nccc(-c3cnn(C(CC#N)C4CCCC4)c3)n2)c1 (racemic) [Example 163, 3-(4-(1-(2-cyano-1-cyclopentylethyl)-1H-pyrazol-4-yl)pyrimidin-2-ylamino)-N-(2-methoxybenzyl)benzamide]"
